Read-outs that look alike come from different tables or passages of the source. Bridge positions count the residues as written; N and C are the ends. Square brackets hold non-standard residues; d marks the D form. Peptide text beside a SMILES is read from it. * marks the point of attachment. Lauroyl = CCCCCCCCCCCC(=O)*; Decanoyl = CCCCCCCCCC(=O)*; Octanoyl = CCCCCCCC(=O)*; Dab = NCC[C@H](N)C(=O)O; X3 = CCCCCCCCCC*
How the values were obtained:
human CXCR4 = target: T1, human CXCR4 (Homo sapiens, UniProt P61073); test: Ca2+-assay: CXCR4-antagonizing activity (SDF-1 induced calcium mobilization); format: cell-based
T1 construct: expressed in transfected cells; host or cells: mouse pre-B cell line 300-19
T1 sequence (P61073 whole entry): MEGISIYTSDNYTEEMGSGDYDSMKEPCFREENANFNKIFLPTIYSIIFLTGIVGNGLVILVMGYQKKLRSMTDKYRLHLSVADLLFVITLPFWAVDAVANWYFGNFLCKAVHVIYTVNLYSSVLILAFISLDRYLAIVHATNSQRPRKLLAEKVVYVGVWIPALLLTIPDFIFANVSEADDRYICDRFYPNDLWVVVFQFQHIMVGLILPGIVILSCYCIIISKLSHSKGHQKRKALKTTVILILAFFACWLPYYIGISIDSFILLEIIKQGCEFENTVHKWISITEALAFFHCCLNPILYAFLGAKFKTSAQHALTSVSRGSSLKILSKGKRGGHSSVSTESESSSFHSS
Excerpt: 2.3. Ca^2+-Assay: CXCR4-Antagonizing Activity of the Peptides
Increases in intracellular calcium were monitored using a Flexstation 384 (Molecular Devices, Sunnyvale, Calif.) to assay the peptides for CXCR4 antagonism in a mouse pre-B cell line 300-19 stably transfected with human CXCR4 (E. Oberlin, A. Amara, F. Bachelerie, C. Bessia, J.-L. Virelizier, F. Arenzana-Seisdedos, O, Schwartz, J.-M. Heard, I. Clark-Lewis, D. F. Legler, M. Loetscher, M. Baggiolini, B. Moser, Nature 1996, 382, 833-835; M. Loetscher, T. Geiser, T. O'Reilly, R. Zwalen, M. Baggiolini, B. Moser, J. Biol. Chem. 1994, 269, 232-237; M. D'Apuuo, A. Rolink, M. Loetscher, J. A. Hoxie, I. Clark-Lewis, F. Melchors, M. Baggiolini, B. Moser, Eur. J. Immunol. 1997, 27, 1788-1793). The cells were batch loaded with the Calcium 4 Assay kit (Molecular Devices) in assay buffer (Hanks Balanced salt solution [HBSS], 20 mM HEPES, pH 7.4, 0.1% BSA) for 1 h at room temperature and labeled cells were dispensed into black well assays plates (Costar No. 3603). Calcium mobilization induced by stromal-derived factor-1 (SDF-1) was measured in the Flexstation 384 (excitation: 485 nm; emission: 525 nm) for 90 seconds. Antagonist activity of peptides was determined by spiking the cells with compounds prior to SDF-1 addition. Dose response curves (compound concentration versus % maximum response for SDF-1) were determined for each antagonist and IC50 values were calculated by fitting the data to a four parameter logistic equation using SoftmaxPro 4.8 (Molecular Devices).

[1] = Cytotoxicity, MTT reduction assay, HELA cells; format: cell-based; conditions: human, HELA cells (Acc57), 12.5-50 μM
Description: (§1) Mouse pre-B cells were cultured in RPMI1640 plus 5% FBS, antibiotic/antimycotic, non essential amino acid, 50 μM β-mercaptoethanol and 1 mM natrium pyruvate. HELA cells were maintained in RPMI1640 plus 10% FBS, pen/strept and 2 mM L-glutamine. Cos-7 cells were grown in DMEM medium with […] glucose supplemented with 10% FCS, pen/strept and 2 mM L-glutamine. All cell lines were grown at 37° C. at 5% CO2. Cell media, media supplements, PBS-buffer, HEPES, antibiotic/antimycotic, pen/strept, non essential amino acid, L-glutamine, β-mercaptoethanol and sera were purchased from Gibco (Pailsey, UK). All fine chemicals were supplied by Merck (Darmstadt, Germany).
(§2) The cytotoxicity of the peptides to HELA cells (Acc57) and COS-7 cells (CRL-1651) was determined using the MTT reduction assay (T. Mossman, J. Immunol. Meth. 1983, 65, 55-63; M. V. Berridge, A. S. Tan, Arch. Biochem. Biophys. 1993, 303, 474-482). Briefly, the method was as follows: 4000 HELA cells/well and 3400 COS-7 cells/well were seeded and grown in 96-well microtiter plates for 24 h at 37° C. at 5% CO2. Thereafter, time zero (Tz) was determined by MTT reduction (see below). The supernatant of the remaining wells was discarded, and fresh medium and compounds in serial dilutions (12.5, 25 and 50 μM, triplicates) were pipetted into the wells. After incubation of the cells for 48 h at 37° C. at 5% CO2 the supernatant was discarded again and 100 μL MTT reagent (0.5 mg/mL in RPMI1640 and DMEM, respectively)/well was added. Following incubation at 37° C. for 2-4 h the media were aspirated and the cells were spiked (100 μL isopropanol/well). The absorbance of the solubilized formazan was measured at 595 nm (OD595peptide). For each concentration averages were calculated from triplicates. The percentage of growth was calculated as follows: (OD595peptide-OD595Tz-OD595Empty well)/(OD595Tz-OD595Empty well)×100%. The GI50 (Growth Inhibition) concentrations were calculated for each peptide by using a trend line function for the concentrations (50, 25, 12.5 and 0 μM), the corresponding percentages and the value 50, (=TREND (C50: C0, %50:%0,50).

[2] = Cytotoxicity, MTT reduction assay, COS-7 cells; format: cell-based; conditions: African green monkey, COS-7 cells (CRL-1651), 12.5-50 μM
Description: as §1, §2

[3] = system: human red blood cells (hRBC); test: Hemolysis of human red blood cells; format: cell-based; conditions: 20% hRBC, 1 h, 37° C.
Description: The peptides were tested for their hemolytic activity against human red blood cells (hRBC). Fresh hRBC were washed three times with phosphate buffered saline (PBS) and centrifuged for 10 min at 2000×g. Compounds (100 μM) were incubated with 20% hRBC (v/v) for 1 h at 37° C. and shaking at 300 rpm. The final erythrocyte concentration was approximately 0.9×10^9 cells/mL. A value of 0% and 100% cell lyses, respectively, was determined by incubation of hRBC in the presence of PBS containing 0.001% acetic acid and 2.5% Triton X-100 in H2O, respectively. The samples were centrifuged, the supernatants were 8-fold diluted in PBS buffer and the optical densities (OD) were measured at 540 nm. The 100% lyses value (OD540H2O) gave an OD540 of approximately 0.5-1.0.
(§3) Percent hemolysis was calculated as follows: (OD540peptide/OD540H2O)×100%. 2.6. Plasma Stability

[4] = Plasma stability in human plasma; format: in vitro ADME; conditions: human plasma, 37° C.; for remaining at 24 h, 10 μM: 1440 min, read-out: human pl. cpd left at 1440 min; for human pl. T1/2: up to 1440 min
Description: as §3
(§4) The stability of the peptides in human and mouse plasma was determined by applying the following method: 346.5 μL/deep well of freshly thawed human plasma (Basler Blutspendedienst) and mouse plasma (Harlan Sera-Lab, UK), respectively, were spiked with 3.5 μL/well of compound dissolved in DMSO/H2O ([…] [v/v], 1 mM, triplicate) and incubated at 37° C. At t=0, 15, 30, 60, 120, 240 and 1440 min aliquots of 50 μL were transferred to filtration plate wells containing 150 μL/well of 2% formic acid in acetonitrile. Following shaking for 2 min the occurred suspensions were filtrated by vacuum and 50 μL of each filtrate was mixed with 100 μL of 1% formic acid in H2O. After transfer to a propylene microtiter plate, the filtrates were analyzed by LC/MS as follows: Column: Waters, XBridge C18, mobile phases: (A) water+0.1% formic acid and (B) acetonitrile/water, 95/5 (v/v)+0.1% formic acid, gradient: 5%-100% (B) in 2 minutes, electrospray ionization, MRM detection (triple quadrupole). The peak areas were determined and triplicate values are averaged. The stability is expressed in percent of the initial value at t=0. (tx/t0×100). By using the TREND function of EXCEL (Microsoft Office 2003) T1/2 were determined.

[5] = Plasma stability in mouse plasma; format: in vitro ADME; conditions: mouse plasma, 37° C.; for remaining at 24 h, 10 μM: 1440 min, read-out: mouse pl. cpd left at 1440 min; for half-life at 10 μM: read-out: mouse pl. T1/2
Description: as §3, §4

[6] = mouse pre-B cell line 300-19 transfected with human CXCR4, SDF-1 induced Ca2+ mobilization, read-out: IC50% [nM] ± SD, CXCR4 receptor

CCCCCCCCCC(=O)NCCCC[C@@H]1NC(=O)[C@H](Cc2ccc(O)cc2)NC(=O)[C@@H]2CSSC[C@H](NC(=O)[C@H]([C@@H](C)O)NC(=O)[C@H](Cc3c[nH]cn3)NC(=O)[C@H](Cc3ccc(O)cc3)NC(=O)[C@@H]3CCCN3C(=O)[C@H]3CCCN3C(=O)[C@H](CCCCN)NC1=O)C(=O)N[C@@H](CCCNC(=N)N)C(=O)N[C@@H](C)C(=O)N[C@H](Cc1ccc(O)cc1)C(=O)N[C@@H](CCN)C(=O)N[C@@H](CCCNC(=N)N)C(=O)N[C@@H](Cc1ccc(O)cc1)C(=O)N2 [Ex. 14] (cyclo(YHTCRA[dY][Dab]RYCYK(Decanoyl)K[dP]P); disulfide 4-11)
IC50 (human CXCR4; [6]): 40.8 ± 12 nM | GI50 at 48 h [1]: > 50 µM | GI50 at 48 h [2]: > 50 µM | Hemolysis at 100 μM [3]: 0.6% | remaining at 24 h, 10 μM [4]: 91% | human pl. T1/2 [4]: 24 h | remaining at 24 h, 10 μM [5]: 23% | half-life at 10 μM ([5]; up to 1440 min): 9.42 h

CCCCCCCCCCCC(=O)NCC[C@@H]1NC(=O)[C@H]2CCCN2C(=O)[C@H](C)NC(=O)[C@H](CCCNC(=N)N)NC(=O)[C@@H]2CSSC[C@H](NC(=O)[C@H](Cc3ccc(O)cc3)NC(=O)[C@H](CCCNC(=N)N)NC1=O)C(=O)N[C@@H](Cc1ccc(O)cc1)C(=O)N[C@@H](CCC(N)=O)C(=O)N[C@@H](CCCCN)C(=O)N1CCC[C@@H]1C(=O)N1CCC[C@H]1C(=O)N[C@@H](Cc1ccc(O)cc1)C(=O)N[C@@H](Cc1c[nH]cn1)C(=O)N[C@@H](C)C(=O)N2 [Ex. 5] (cyclo(YHACRA[dP][Dab](Lauroyl)RYCYQK[dP]P); disulfide 4-11)
IC50 (human CXCR4): 95.5 ± 12 nM | GI50 at 48 h [1]: > 50 µM | GI50 at 48 h [2]: > 43 µM | Hemolysis at 100 μM [3]: 0.3% | remaining at 24 h, 10 μM [4]: 100% | human pl. T1/2 [4]: 24 h | remaining at 24 h, 10 μM [5]: 73% | mouse pl. T1/2 ([5]; up to 1440 min): 24 h

CCCCCCCC(=O)NCCCC[C@@H]1NC(=O)[C@H](Cc2ccc(O)cc2)NC(=O)[C@@H]2CSSC[C@H](NC(=O)[C@H](Cc3ccc(O)cc3)NC(=O)[C@H](Cc3c[nH]cn3)NC(=O)[C@H](Cc3ccc(O)cc3)NC(=O)[C@@H]3CCCN3C(=O)[C@@H](Cc3ccc(O)cc3)NC(=O)[C@H](CCCCN)NC1=O)C(=O)N[C@@H](CO)C(=O)N[C@@H](C)C(=O)N1CCC[C@@H]1C(=O)N[C@@H](CCN)C(=O)N[C@@H](CCCNC(=N)N)C(=O)N[C@@H](Cc1ccc(O)cc1)C(=O)N2 [Ex. 13] (cyclo(A[dP][Dab]RYCYK(Octanoyl)K[dY]PYHYCS); disulfide 6-15)
IC50 (human CXCR4; [6]): 6.3 ± 2.7 nM | GI50 at 48 h [1]: > 50 µM | GI50 at 48 h [2]: > 50 µM | Hemolysis at 100 μM [3]: 1.2% | remaining at 24 h, 10 μM [4]: 100% | human pl. T1/2 [4]: 24 h | remaining at 24 h, 10 μM [5]: 72% | half-life at 10 μM ([5]; up to 1440 min): 22.4 h

CCCCCCCCCCCC(=O)NCC[C@@H]1NC(=O)[C@H](Cc2ccc(O)cc2)NC(=O)[C@@H]2CSSC[C@H](NC(=O)[C@H](C)NC(=O)[C@H](Cc3c[nH]cn3)NC(=O)[C@H](Cc3ccc(O)cc3)NC(=O)[C@@H]3CCCN3C(=O)[C@H]3CCCN3C(=O)[C@H](CCCCN)NC1=O)C(=O)N[C@@H](CCCNC(=N)N)C(=O)N[C@@H](C)C(=O)N1CCC[C@@H]1C(=O)N[C@@H](CCN)C(=O)N[C@@H](CCCNC(=N)N)C(=O)N[C@@H](Cc1ccc(O)cc1)C(=O)N2 [Ex. 11] (cyclo(YHACRA[dP][Dab]RYCY[Dab](Lauroyl)K[dP]P); disulfide 4-11)
IC50 (human CXCR4; [6]): 7.3 ± 4.7 nM | GI50 at 48 h [1]: > 29 µM | GI50 at 48 h [2]: > 50 µM | Hemolysis at 100 μM [3]: 0.7% | remaining at 24 h, 10 μM [4]: 82% | human pl. T1/2 [4]: 24 h

CCCCCCCCCC(=O)NCCCC[C@@H]1NC(=O)[C@H](Cc2ccc(O)cc2)NC(=O)[C@@H]2CSSC[C@H](NC(=O)[C@H]([C@@H](C)O)NC(=O)[C@H](Cc3c[nH]cn3)NC(=O)[C@H](Cc3ccc(O)cc3)NC(=O)[C@@H]3CCCN3C(=O)[C@H]3CCCN3C(=O)[C@H](CCCCN)NC1=O)C(=O)N[C@@H](CCCNC(=N)N)C(=O)NCC(=O)N1CCC[C@@H]1C(=O)N[C@@H](CCN)C(=O)N[C@@H](CCCNC(=N)N)C(=O)N[C@@H](Cc1ccc(O)cc1)C(=O)N2 [Ex. 15] (cyclo(YHTCRG[dP][Dab]RYCYK(Decanoyl)K[dP]P); disulfide 4-11)
IC50 (human CXCR4; [6]): 11.2 ± 4 nM | GI50 at 48 h [1]: > 50 µM | GI50 at 48 h [2]: > 40 µM | Hemolysis at 100 μM [3]: 0.6% | remaining at 24 h, 10 μM [4]: 73% | human pl. T1/2 [4]: 24 h

CCCCCCCCCCOC[C@@H]1NC(=O)[C@H](Cc2ccc(O)cc2)NC(=O)[C@@H]2CSSC[C@H](NC(=O)[C@H]([C@@H](C)O)NC(=O)[C@H](Cc3c[nH]cn3)NC(=O)[C@H](Cc3ccc(O)cc3)NC(=O)[C@@H]3CCCN3C(=O)[C@H]3CCCN3C(=O)[C@H](CCC(N)=O)NC1=O)C(=O)N[C@@H](CCCNC(=N)N)C(=O)NCC(=O)N1CCC[C@@H]1C(=O)N[C@@H](CCN)C(=O)N[C@@H](CCCNC(=N)N)C(=O)N[C@@H](Cc1ccc(O)cc1)C(=O)N2 [Ex. 30] (cyclo(YHTCRG[dP][Dab]RYCYS(X3)Q[dP]P); disulfide 4-11)
IC50 (human CXCR4): 55.1 ± 19 nM | GI50 at 48 h [1]: > 50 µM | GI50 at 48 h [2]: > 50 µM | Hemolysis at 100 μM [3]: 5.5% | remaining at 24 h, 10 μM [4]: 54% | human pl. T1/2 [4]: 24 h

From patent publication US8716242B2, “β-hairpin peptidomimetics” (priority 2009, dated 2014)
